The test deals with HCT-116. Put plainly: Cytotoxicity against HCT116 cells. It counts as functional, cell-based. The note with it: Homo sapiens.
`CCCCCCCCCCC(O)C1CCC(C2CCC(C(O)CCCCCCCC[C@H](O)CC3=C[C@@H](C)OC3=O)O2)O1` (stereo partly specified) [ASIMICIN] came in with an IC50 of 8.8 nM. The value for `C[C@H]1C=C(C[C@H](O)CCCCCCCCCC[C@@H](O)[C@H]2CC[C@H]([C@H]3CC[C@H]([C@H](O)CCCCCCCCCCCO)O3)O2)C(=O)O1` was 0.6 nM; that for `C[C@H]1C=C(CCCCCCCCCCC[C@@H](O)[C@H]2CC[C@H]([C@H]3CC[C@H]([C@H](O)CCCCCCCCCCCO)O3)O2)C(=O)O1` was 35 nM; that for `CCCCCCCC[C@@H](O)[C@H]1CC[C@H]([C@H]2CC[C@H]([C@H](O)CCCCCCCCCC[C@@H](O)CC3=C[C@H](C)OC3=O)O2)O1` was 0.5 nM.

On to `C[C@H]1C=C(C[C@H](O)CCCCCCCCCC[C@@H](O)[C@H]2CC[C@H]([C@H]3CC[C@H]([C@H](O)CCCCCCO)O3)O2)C(=O)O1`, for which half-maximal inhibition (IC50) required 3.8 nM.

`COCOCCCCCC[C@@H](O)[C@H]1CC[C@H]([C@H]2CC[C@H]([C@H](O)CCCCCCCCCC[C@@H](O)CC3=C[C@H](C)OC3=O)O2)O1` yielded an IC50 of 16 nM.
